How the values were obtained:
Test in all cases: normalised response (% of control), CellTiter-Glo; higher = more viable cells (100 = DMSO, 0 = benzethonium chloride kill control)
Conditions in all cases: incubation time: 72 h
MFM-223 = system: MFM-223
Procedure, shortened: (§1)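 Breast cancer cell lines were exposed for 72 h in 384-well plates to compound at 5 concentrations, 10-fold apart, covering a 10,000-fold range fixed for each compound. Plates were read for CellTox Green fluorescence and CellTiter-Glo luminescence and normalised to 0.1 % DMSO (100) and a positive kill control (0). Each value is the normalised signal at one concentration of the series.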

Hs578T = system: Hs578T
Procedure, shortened: as §1

MDA-MB-453 = system: MDA-MB-453
Procedure, shortened: as §1

MCF-10A = system: MCF-10A
Procedure, shortened: as §1

HCC1599 = system: HCC1599
Procedure, shortened: as §1

CAL-120 = system: CAL-120
Procedure, shortened: as §1

CAL-85-1 = system: CAL-85-1
Procedure, shortened: as §1

MDA-MB-436 = system: MDA-MB-436
Procedure, shortened: as §1

HCC1937 = system: HCC1937
Procedure, shortened: as §1

| Compound | normalised response (MFM-223) | normalised response (Hs578T) | normalised response (MDA-MB-453) | normalised response (MCF-10A) | normalised response (HCC1599) | normalised response (CAL-120) | normalised response (CAL-85-1) | normalised response (MDA-MB-436) | normalised response (HCC1937) |
| --- | --- | --- | --- | --- | --- | --- | --- | --- | --- |
| COc1cc2c(Oc3ccc(NC(=O)C4(C(=O)Nc5ccc(F)cc5)CC4)cc3F)ccnc2cc1OCCCN1CCOCC1 [Foretinib] (100 nM) | 75.7% | 96.1% | 85.6% | 95.1% | 89.8% | 93.9% | 98% | 110% | 98.1% |
| Cn1nnc2c(C(N)=O)ncn2c1=O [Temozolomide] (1000 nM) | 94.8% | 91.7% | 100% | 104% | 116% | 99.3% | 99.4% | 104% | 93.9% |
| O=NN(CCCl)C(=O)NC1CCCCC1 [Lomustine] (1000 nM) | 98% | 101% | 113% | 105% | 128% | 100% | 94.1% | 104% | 102% |
| C[C@@H](C(=O)O)c1ccc(-c2ccccc2)c(F)c1 [Tarenflurbil] (1000 nM) | 95% | 101% | 96% | 90.1% | 106% | 96.5% | 98.8% | 100% | 94.7% |
| CCN(CC)CCOc1ccc(C(=C(Cl)c2ccccc2)c2ccccc2)cc1 [Clomifene] (1000 nM) | 100% | 94.3% | 94.2% | 101% | 92.7% | 102% | 94.2% | 104% | 93.8% |
| CC[C@@H]1C(=O)N(C)c2cnc(Nc3ccc(C(=O)N[C@H]4CC[C@H](N5CCN(CC6CC6)CC5)CC4)cc3OC)nc2N1C(C)C [Volasertib] (100 nM) | 42% | 54.6% | 77.3% | 58.5% | 45.6% | 64.4% | 53% | 50.1% | 81% |
| Cc1cc2c(F)c(Oc3ncnn4cc(OC[C@@H](C)O)c(C)c34)ccc2[nH]1 [Brivanib] (100 nM) | 107% | 98.8% | 97% | 111% | 126% | 109% | 97.1% | 110% | 97.4% |
| CC/C(=C(\c1ccccc1)c1ccc(OCCN(C)C)cc1)c1ccccc1 [Tamoxifen] (1000 nM) | 97.9% | 106% | 93.1% | 104% | 107% | 94.8% | 99.8% | 97.7% | 102% |
| C[C@]12C=CC(=O)C=C1CC[C@@H]1[C@@H]2C(=O)C[C@@]2(C)[C@H]1CC[C@]2(O)C(=O)CO [Prednisone] (1000 nM) | 101% | 110% | 106% | 108% | 113% | 102% | 92.9% | 104% | 101% |
| O=C(O)CC[C@H]1CC[C@@](c2cc(F)ccc2F)(S(=O)(=O)c2ccc(Cl)cc2)CC1 [MK-0752] (100 nM) | 109% | 103% | 108% | 109% | 109% | 95.6% | 92% | 104% | 98.5% |
| Cc1c(N)nc([C@H](CC(N)=O)NC[C@H](N)C(N)=O)nc1C(=O)N[C@H](C(=O)N[C@H](C)[C@@H](O)[C@H](C)C(=O)N[C@H](C(=O)NCCc1nc(-c2nc(C(=O)NCCC[S+](C)C)cs2)cs1)[C@@H](C)O)[C@@H](OC1OC(CO)C(O)C(O)C1OC1OC(CO)C(O)C(OC(N)=O)C1O)c1cnc[nH]1 (stereo partly specified) [Bleomycin] (1000 nM) | 99.6% | 86.5% | 91% | 96% | 105% | 91.9% | 91.9% | 82.3% | 94.2% |
| NC(=O)NO [Hydroxyurea] (10000 nM) | 105% | 109% | 114% | 109% | 111% | 95.7% | 98.2% | 97.7% | 98.4% |
| Nc1nc(Cl)nc2c1ncn2[C@@H]1O[C@H](CO)[C@@H](O)[C@@H]1F [Clofarabine] (1000 nM) | 103% | 91.9% | 127% | 68.1% | 61.7% | 75.3% | 47.4% | 22.9% | 89.9% |
| NC(=O)c1cccc2cn(-c3ccc([C@@H]4CCCNC4)cc3)nc12 [MK-4827] (1000 nM) | 106% | 102% | 140% | 106% | 107% | 101% | 105% | 79.3% | 105% |

From the supplement of paper PMC4862054
